Experimental findings from US12617837B2, “Composition for use in treatment of allergic diseases” (UNIVERSITY OF TSUKUBA, priority 2019, dated 2026) are described below.

Assay [1] has as its target T1, Clec10a-Fc (Mus musculus, UniProt P49300).
T1 construct: cloning the extracellular region of mouse Clec10a into a pME18S expression vector; made in house; host or cells: HEK293T cells
T1 sequence (P49300 57-304 limits assumed): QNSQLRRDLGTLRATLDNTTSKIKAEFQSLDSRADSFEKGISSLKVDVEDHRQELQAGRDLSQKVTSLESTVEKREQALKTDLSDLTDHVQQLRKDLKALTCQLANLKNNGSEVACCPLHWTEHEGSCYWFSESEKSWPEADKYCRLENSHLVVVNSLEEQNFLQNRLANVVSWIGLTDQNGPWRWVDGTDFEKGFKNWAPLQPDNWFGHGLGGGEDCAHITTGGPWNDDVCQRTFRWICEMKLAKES
Put plainly: Sugar conjugate (glycan) microarray analysis of Clec10a-Fc (Table 7). Format: binding. To be noted: for Signal value, Clec10a-Fc: glycan microarray probed with Clec10a-Fc; for Signal value, Clec10a-Fc with EDTA: glycan microarray probed with Clec10a-Fc with EDTA. Here is the method:
A sugar conjugate microarray containing 98 sugar conjugates (Table 3) was prepared according to a known method using a non-contact microarray printing robot (MicroSys 4000; Genomic Solutions).

Assay [2] deals with T1, Clec10a-Fc. Put plainly: ELISA of Clec10a-Fc binding to glycan-coated plates. The following applies: plates coated with Lewis X or Lewis Y. The text has this: A mouse Clec10a chimeric construct (Clec10a-Fc) was made by cloning the extracellular region of mouse Clec10a into a pME18S expression vector containing the Fc region of human IgG1. Clec10a-Fc was transfected into HEK293T cells using Lipofectamine 2000 (Thermo Fisher Scientific) and the medium was then replaced with GIT medium (KOHJIN BIO). Clec10a-Fc was purified from the culture supernatants using protein a agarose (Bio-Rad Laboratories).
An ELISA system with Clec10a applied to glycan-coated plates was constructed by a routine method to study the binding of each glycan with Clec10a. In the ELISA system, with the expectation that a multivalent effect is achieved by binding a plurality of glycans to the polymeric scaffold, the glycans were bound to the polymeric scaffold and presented to Clec10a. […]
A PBS solution containing 1 μg/well, 0.1 μg/well, or 0.01 μg/well of the polymeric scaffold presenting the glycans at the location “Sugar” of the above formula as described above (the modification rate was 20% as per the above formula) was introduced into a 96 well plate, and incubation was performed overnight at room temperature so that the wells were coated with the glycans. […] After 1-hour incubation at room temperature, the unbound Clec10a-Fc was washed, and Clec10a-Fc bound to the plate surface was quantified with peroxidase-labeled anti-Fc antibodies. […]

For another assay, the target named is T2, mouse Clec10a (Mus musculus, UniProt P49300).
T2 construct: an extracellular and transmembrane portions of Clec10a fused to a cytoplasmic portion of CD3; expressed in transfected cells; host or cells: 2B4-NFAT-GFP reporter cells, pMXs-puro retroviral vector
T2 sequence (P49300 57-304 limits assumed): T1 sequence (P49300 57-304 limits assumed)
As to the kind of experiment: Mouse Clec10a-CD3ζ NFAT-GFP reporter cell assay. To be noted: for GFP expression in mouse Clec10a reporter cells: stimulation with coated plates, 18 hours, flow cytometry. In kind it is cell-based. Here is the method:
(§1) The intracellular region of human CD3ζ was obtained from a vector provided by LL Lanier (University of California, San Francisco). The extracellular region of mouse or human Clec10a or the extracellular region of human Asgr1 was subcloned into a pMXs-puro retroviral vector. 2B4-NFAT-GFP reporter cells were provided from H. Arase (University of Osaka). 2B4-NFAT-GFP reporter cells stably expressing mouse or human Clec10a were made as described previously. The reporter cells were incubated for 18 hours in the presence or absence of anti-Clec10a mAb, Lewis X (GlycoTech), Lewes Y (GlycoTech), galactose (Sigma-Aldrich), glucose (Sigma-Aldrich) or mannose (Sigma-Aldrich). The reporter cells were also cultured on a galactosidase (R & D Systems, 5704 GH or 5549 GH) or glucosidase (R & D Systems, 8329-GH), or Clec10 ligand-coated plate, or an HDM extract-coated plate treated with size-fractionated Clec10a ligand or untreated. Activation of NFAT-GFP was monitored by flow cytometry.
To test whether Clec10a recognized glycosylated proteins contained in HDM, NFAT-GFP reporter cells (Clec10a reporter cells) were made which expressed chimeric fusion proteins inch ling an extracellular and transmembrane portions of Clec10a fused to a cytoplasmic portion of CD3.
(Flow cytometry measures light scatter and fluorescence of single cells or particles in a stream.)

The test system of the next assay is human IgG1. As to the kind of experiment: Glycan microarray probed with human IgG1 (control of Table 7). In kind it is binding.
A further assay has as its system BMMP. Put plainly: Immunoprecipitation/immunoblot of SHP-1 recruitment to Clec10a in HDM-stimulated BMMP. In kind it is cell-based, mouse. The following applies: BMMP pretreated with Syk inhibitor, HDM extract 100 μg/mL. Here is the method:
To analyze association of Clec10a with Syk or SHP-1, BMMP was pretreated in the presence or absence of […] Syk inhibitor IV (Merck, 574714) at 37° C. for 30 minutes and stimulated with an HDM extract (100 μg/mL) at 37° C. for 0 min, 10 min, or 30 min. BMMP was lysed with a 0.2% digitonin buffer and immunoprecipitated with anti-Clec10a mAb. An immune precipitate was transferred onto a PVDF membrane as described above and immunoblotted using anti-Syk antibodies, anti-SHP-1 antibodies, or anti-Clec10a antibodies, and then detected with HRP-labeled anti-rabbit IgG antibodies or goat IgG antibodies. All proteins were detected using enhanced chemiluminescence (Thermo Fisher Scientific).
On the technique in general: In western blotting, separated proteins are transferred to a membrane and probed.

Assay [3] deals with skin inflammation against lipopolysaccharides (LPS). As to the kind of experiment: LPS-induced skin inflammation, intradermal LPS with polymeric scaffold presenting T antigen. Format: in vivo, mouse. The following applies: 50 μg LPS and 20 μg T antigen scaffold intradermal daily, Day 5. Here is the method:
It was examined whether one of them, T antigen, could suppress skin inflammation against lipopolysaccharides (LPS). The polymeric scaffolds presenting 50 μg LPS and 20 μg T antigen were intradermally injected in the mouse back daily and the epidermal thickness was observed on Day 5. […] In the Clec10a-knockout mice, the epidermal thickness was equal to or greater than that in the WT.

Another assay deals with T3, human Clec10a (Homo sapiens, UniProt Q8IUN9).
T3 construct: The extracellular region of mouse or human Clec10a or the extracellular region of human Asgr1 was subcloned; expressed in transfected cells; host or cells: 2B4-NFAT-GFP reporter cells, pMXs-puro retroviral vector
T3 sequence (Q8IUN9 61-316 limits assumed): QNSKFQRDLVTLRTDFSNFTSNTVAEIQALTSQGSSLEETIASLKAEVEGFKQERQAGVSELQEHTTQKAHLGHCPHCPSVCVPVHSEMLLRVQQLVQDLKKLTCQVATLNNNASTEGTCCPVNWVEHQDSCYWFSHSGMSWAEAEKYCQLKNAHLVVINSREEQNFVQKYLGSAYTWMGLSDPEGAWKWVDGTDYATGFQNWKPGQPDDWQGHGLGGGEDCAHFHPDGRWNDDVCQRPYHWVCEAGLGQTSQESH
As to the kind of experiment: Human Clec10a-CD3ζ NFAT-GFP reporter cell assay. To be noted: addition of sugar, HDM-coated plates. In kind it is cell-based. Here is the method:
as §1
(§2) The hemITAM sequence (YxxL) was not found in human Clec10a and could only be found in human Asgr1 (see panel c in FIG. 4). […] Upon confirmation of protein expression, human Asgr1 expressed in MP in the human skin, similarly to Clec10a expression in the mouse skin (see panel e in FIG. 4). […]

The target in a further assay is T4, human Asgr1 (Homo sapiens, UniProt P07306).
T4 construct: the extracellular region of human Asgr1 was subcloned into a pMXs-puro retroviral vector; expressed in transfected cells
T4 sequence (P07306 62-291 limits assumed): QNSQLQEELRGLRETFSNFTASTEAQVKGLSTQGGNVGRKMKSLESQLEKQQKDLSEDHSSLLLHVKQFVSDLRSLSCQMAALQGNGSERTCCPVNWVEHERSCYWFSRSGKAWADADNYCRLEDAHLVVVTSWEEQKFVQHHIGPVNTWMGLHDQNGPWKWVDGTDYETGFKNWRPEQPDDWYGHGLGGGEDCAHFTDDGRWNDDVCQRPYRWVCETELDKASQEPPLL
As to the kind of experiment: Human Asgr1-CD3ζ NFAT-GFP reporter cell assay. Format: cell-based. Here is the method: as §1, §2

As to `CC(=O)N[C@@H]1[C@@H](O[C@@H]2O[C@@H](C)[C@@H](O)[C@@H](O)[C@@H]2O)[C@H](O[C@@H]2O[C@H](CO)[C@H](O)[C@H](O)[C@H]2O[C@@H]2O[C@@H](C)[C@@H](O)[C@@H](O)[C@@H]2O)[C@@H](CO)O[C@H]1O` [Lewis Y, reference compound], on Clec10a-Fc [1], the “Signal value, Clec10a-Fc” value was 0 and the “Signal value, Clec10a-Fc with EDTA” value was determined as 0. Also, on Clec10a-Fc [2], the “Binding of Clec10a-Fc to coated plates (ELISA)” value is “not bound”. For the same molecule, at mouse Clec10a, the “GFP expression in mouse Clec10a reporter cells” value is reported as “did not respond”. Besides, the “Signal value, human IgG1” value in the assay with human IgG1 was 0.
Regarding `COc1ccc(-c2cc3nccn3c(Nc3ncccc3C(N)=O)n2)cc1OC` [Syk inhibitor IV], the “Recruitment of HDM-induced SHP-1 to Clec10a” value with BMMP is reported as “suppressed the recruitment of HDM-induced SHP-1 to Clec10a”.
As for `CC(=O)N[C@H]1C(O)O[C@H](CO)[C@H](O)[C@@H]1O[C@@H]1O[C@H](CO)[C@H](O)[C@H](O)[C@H]1O` (stereo partly shown) [T antigen, Galβ(1-3)GalNAc], the “Binding of Clec10a-Fc in glycan microarray” value at Clec10a-Fc [1] (Clec10a-Fc 10 μg/mL) is on record as “binds”. For the same molecule, the Epidermal thickness result in assay [3] (Clec10a knockout mice) is “epidermal thickness suppressive effect of the T antigen was not observed”; in assay [3] (WT mice), “increase in thickness of the skin by LPS was suppressed”. The “GFP expression in mouse Clec10a reporter cells” value on mouse Clec10a is listed as “activated Clec10a in a dose-dependent manner”.
As to `O=C[C@H](O)[C@@H](O)[C@@H](O)[C@H](O)CO` [galactose], at mouse Clec10a (pretreatment of the reporter cells, HDM-coated plates), the “Inhibition of HDM-induced GFP expression in mouse Clec10a reporter cells” value is on record as “inhibited GFP expression”. The “Inhibition of HDM-induced GFP expression in human Clec10a reporter cells” value at human Clec10a is “only in the Asgr1 reporter cells”. In addition, the “Offset of Clec10a ligand-induced activation of human Asgr1 reporter cells” value on human Asgr1 (addition of galactose to the system) was “offset, in a concentration dependent manner”. Further, the “Inhibition of HDM-induced GFP expression in human Asgr1 reporter cells” value at human Asgr1 (addition of sugar, HDM-coated plates) is “inhibited the expression of GFP induced by HDM”.
For the molecule Galβ 1-3(Fucα 1-4)GlcNAcβ 1-PAA [LeA], at Clec10a-Fc [1], the “Signal value, Clec10a-Fc” value is listed as 5532 and the “Signal value, Clec10a-Fc with EDTA” value stood at 0. At mouse Clec10a, the “GFP expression in mouse Clec10a reporter cells” value was “activated Clec10a in a dose-dependent manner”. For the same molecule, the “Signal value, human IgG1” value with human IgG1 stood at 0.
As to Galβ.1-4(Fucα 1-3)GlcNAcβ 1-PAA [LeX], on Clec10a-Fc [1], the “Signal value, Clec10a-Fc” value worked out at 2535 and the “Signal value, Clec10a-Fc with EDTA” value was found to be 0. Further, the “GFP expression in mouse Clec10a reporter cells” value on mouse Clec10a is recorded as “activated Clec10a in a dose-dependent manner”. Besides, the “Signal value, human IgG1” value in the assay with human IgG1 came to 0.
